Tests used:
[1] = test system: HIV-1NL4–3; assay: antiviral assay in MT-4 human T-lymphocytes exposed to HIV-1NL4–3; assay type: cell-based; details: Human immunodeficiency virus 1, MT4, in Homo sapiens, read-out: antiviral IC50
[2] = test system: HIV-1APV^R5 μM; assay type: cell-based; details: HIV-1APV^R5 μM compared to wild-type HIV-1NL4–3
[3] = test system: MT-4 cells; details: ratio of CC50 to IC50
[4] = test system: HIV-1NL4–3; assay: antiviral p24 Gag assay in MT-4 cells, wild-type virus; assay type: cell-based; details: Human immunodeficiency virus 1, MT4, read-out: mean IC50 ± SD
[5] = test system: HIV-1ATV^R5μM; assay type: cell-based; details: HIV-1ATV^R5μM compared to wild-type HIV-1NL4–3
[6] = in vitro; details: human
[7] = test system: multidrug-resistant HIV-1 variants; assay: microbe, parasite or virus in culture; assay type: cell-based; details: Human immunodeficiency virus 1, read-out: antiviral IC50, range over variants
[8] = test system: HIV-1LPV^R5μM; assay type: cell-based; details: HIV-1LPV^R5μM compared to wild-type HIV-1NL4–3

Structure (SMILES)	IC50 fold-change (in parentheses) [2]	selectivity index [3]	IC50 [4] [nM]	IC50 fold-change (in parentheses) [5]	other results
C=C(C)CN1C(=O)O[C@@H]2C[C@H](OC(=O)N[C@@H](Cc3ccccc3)[C@H](O)CN(CC(C)C)S(=O)(=O)c3ccc(OC)cc3)C[C@@H]21 [Inhibitor 4k, (3aS,5R,6aR)-3-(2-Methylallyl)-2-oxohexahydro-2H-cyclopenta[d]oxazol-5-yl ((2S,3R)-3-Hydroxy-4-((N-isobutyl-4-methoxyphenyl)sulfonamido)-1-phenylbutan-2-yl)carbamate]	11	>3226	23 ± 0.1	1	IC50 [1]: 31 nM
COc1ccc(S(=O)(=O)N(CC(C)C)C[C@@H](O)[C@H](Cc2ccccc2)NC(=O)O[C@@H]2C[C@@H]3NC(=O)O[C@@H]3C2)cc1 [Inhibitor 4a, (3aS,5R,6aR)-2-Oxohexahydro-2H-cyclopenta[d]oxazol-5-yl ((2S,3R)-3-Hydroxy-4-((N-isobutyl-4-methoxyphenyl)-sulfonamido)-1-phenylbutan-2-yl)carbamate]	–	>2070	–	–	–
CC(C)CN(C[C@@H](O)[C@H](Cc1ccccc1)NC(=O)O[C@H]1CO[C@H]2OCC[C@H]21)S(=O)(=O)c1ccc(N)cc1 [DRV, darunavir, reference compound]	–	–	3.5 ± 0.09	–	–
COc1ccc(S(=O)(=O)N(CC(C)C)C[C@@H](O)[C@H](Cc2ccccc2)NC(=O)O[C@@H]2C[C@@H]3OC(=O)N(C)[C@@H]3C2)cc1 [Inhibitor 4d, (3aR,5S,6aS)-3-Methyl-2-oxohexahydro-2H-cyclopenta[d]-oxazol-5-yl ((2S,3R)-3-Hydroxy-4-((N-isobutyl-4-methoxyphenyl)sulfonamido)-1-phenylbutan-2-yl)carbamate]	–	>229	–	–	–
COc1ccc(S(=O)(=O)N(CC(C)C)C[C@@H](O)[C@H](Cc2ccccc2)NC(=O)O[C@H]2C[C@H]3OC(=O)N(C)[C@H]3C2)cc1 [Inhibitor 4c, (3aS,5R,6aR)-3-Methyl-2-oxohexahydro-2H-cyclopenta[d]-oxazol-5-yl ((2S,3R)-3-Hydroxy-4-((N-isobutyl-4-methoxyphenyl)sulfonamido)-1-phenylbutan-2-yl)carbamate]	–	>2778	–	–	CC50 [6]: > 100000 nM
COc1ccc(S(=O)(=O)N(CC(C)C)C[C@@H](O)[C@H](Cc2ccccc2)NC(=O)O[C@H]2C[C@H]3OC(=O)N(CC(C)C)[C@H]3C2)cc1 [Inhibitor 4l, (3aS,5R,6aR)-3-Isobutyl-2-oxohexahydro-2H-cyclopenta[d]-oxazol-5-yl ((2S,3R)-3-Hydroxy-4-((N-isobutyl-4-methoxyphenyl)sulfonamido)-1-phenylbutan-2-yl)carbamate]	7	>2439	–	1	IC50 [7]: 33 to 615 nM; IC50 fold-change (in parentheses) [8]: 15
